{
  "source": "patent US12194095B2",
  "about": "“Combinations and uses thereof” (Incyte Corporation, priority 2015, dated 2025)",
  "system": "MEC-1 cells",
  "experiment": "ADCC cytotoxicity (target cell killing) of MEC-1 cells with NK cells, MOR00208 and Idelalisib alone and in combination",
  "format": "cell-based, human",
  "protocol": "The cytotoxicity of MOR00208 and Idelalisib alone and in combination were tested in the MEC-1 cell line.\nIdelalisib is a phosphoinositide 3-kinase inhibitor; more specifically, it blocks P110δ, the delta isoform of the enzyme phosphoinositide 3-kinase. […] MOR00208 targets CD19 and mediates target cell killing via ADCC.\nThe following were used as controls: a) MEC-1 cells+RefmAb33+DMSO+NK cells, b) MEC-1 cells+DMSO+NK cells, c) MEC-1 cells+DMSO.\nTarget cell killing was measured using the following parameters: Idelalisib at concentrations of 0.3, 1, 3 and 10 μM; MOR00208 at concentrations of 1.5, 0.015 and 0.0015 μg/ml and the combination of MOR00208 and Idelalisib at the same concentrations.\nIn the Idelalisib group, […] in the MOR00208+Idelalisib combination group, target cells were pre-treated with Idelalisib for 7 days prior to the ADCC assay measurements. The target cells were counted and stained using 10 μM CFSE end concentration. For DMSO treated target cells, an effector:target (E:T) ratio of 2:1 is chosen, corresponding to a cell density of 5×10^5/ml. The proliferative effect on target cells caused by Idelalisib treatment was included by adjusting the E:T ratio in inhibitor treated cells. The NK cells are counted and adjusted to 1×10^6/ml. The target cell killing assays were performed as follows: using 96 well plates, 100 μl of target cell suspension was added per well, followed by 100 μl cell suspension of NK cells to each well resulting in an E:T ratio of 2:1. The antibodies were diluted in a range of 10-0.00001 nM (corresponding to 1.5-0.0000015 μg/ml) in medium. Cells were centrifuged and target:effector cell-pellets were re-suspended in 100 μl antibody-containing medium or the according control solution. The assay was incubated for 4 h in CO2-incubator at 37° C. After 10 min incubation on ice, 50 μl DAPI solution was added to each well (final concentration 1 μg/ml) and incubated on ice for 10 min. The cell killing measurements were performed with FACS-Verse. Dead target cells were DAPI positive.\nIn total, six experiments were performed in order to determine the mediation of ADCC on MEC-1 cells by the combination of MOR00208 and Idelalisib. […] The autoreactivity of the NK cells prevented a proper analysis in those two experiments.\nThe % dead cells (raw data) from Tables 1-16 was analysed in the following way:\n[formula] [formula] [formula] where A is the treatment with MOR00208 alone; B is the treatment with Idelalisib alone; C is response to the control DMSO+RefMab33; AB is the combination of treatments A and B.\nIn order to confirm the results of synergy as calculated using Clarke et al. above, the Combination Index (CI) method was applied to the % dead cells (raw data) of Tables 1-16. For CI calculations, we used 0.3, 1, 3 and 10 μM Idelalisib and three MOR208 concentrations (1.5, 0.015 and 0.0015 μg/ml).",
  "note": "Entries after “also recorded” stand apart in the source; their conditions may differ.",
  "data": [
    {"smiles": "CC[C@H](Nc1ncnc2nc[nH]c12)c1nc2cccc(F)c2c(=O)n1-c1ccccc1", "note": "[Idelalisib]", "values": [
      {"measurement": "effect of the Idelalisib group greater than the control", "setting": "Experiment 1, Tables 1-3", "result": "~4", "unit": "%"},
      {"measurement": "% dead cells", "setting": "Experiment 1, Idelalisib 0.3 μM, MOR00208 0.01 nM (0.0015 μg/ml)", "result": 6.8, "unit": "%"},
      {"measurement": "% dead cells", "setting": "Experiment 1, Idelalisib 0.3 μM, MOR00208 0.1 nM (0.015 μg/ml)", "result": 6.8, "unit": "%"},
      {"measurement": "% dead cells", "setting": "Experiment 1, Idelalisib 0.3 μM, MOR00208 10 nM (1.5 μg/ml)", "result": 6.8, "unit": "%"},
      {"measurement": "% dead cells", "setting": "Experiment 1, Idelalisib 1 μM, MOR00208 0.01 nM (0.0015 μg/ml)", "result": 10.8, "unit": "%"},
      {"measurement": "% dead cells", "setting": "Experiment 1, Idelalisib 1 μM, MOR00208 0.1 nM (0.015 μg/ml)", "result": 10.8, "unit": "%"},
      {"measurement": "% dead cells", "setting": "Experiment 1, Idelalisib 1 μM, MOR00208 10 nM (1.5 μg/ml)", "result": 10.8, "unit": "%"},
      {"measurement": "% dead cells", "setting": "Experiment 1, Idelalisib 3 μM, MOR00208 0.01 nM (0.0015 μg/ml)", "result": 11.3, "unit": "%"},
      {"measurement": "% dead cells", "setting": "Experiment 1, Idelalisib 3 μM, MOR00208 0.1 nM (0.015 μg/ml)", "result": 11.3, "unit": "%"},
      {"measurement": "% dead cells", "setting": "Experiment 1, Idelalisib 3 μM, MOR00208 10 nM (1.5 μg/ml)", "result": 11.3, "unit": "%"},
      {"measurement": "% dead cells", "setting": "Experiment 1, Idelalisib 10 μM, MOR00208 0.01 nM (0.0015 μg/ml)", "result": 11.6, "unit": "%"},
      {"measurement": "% dead cells", "setting": "Experiment 1, Idelalisib 10 μM, MOR00208 0.1 nM (0.015 μg/ml)", "result": 11.6, "unit": "%"},
      {"measurement": "% dead cells", "setting": "Experiment 1, Idelalisib 10 μM, MOR00208 10 nM (1.5 μg/ml)", "result": 11.6, "unit": "%"},
      {"measurement": "% dead cells", "setting": "Experiment 2, Idelalisib 0.3 μM, MOR00208 0.01 nM (0.0015 μg/ml)", "result": 20.8, "unit": "%"},
      {"measurement": "% dead cells", "setting": "Experiment 2, Idelalisib 0.3 μM, MOR00208 0.1 nM (0.015 μg/ml)", "result": 20.8, "unit": "%"},
      {"measurement": "% dead cells", "setting": "Experiment 2, Idelalisib 0.3 μM, MOR00208 10 nM (1.5 μg/ml)", "result": 20.8, "unit": "%"},
      {"measurement": "% dead cells", "setting": "Experiment 2, Idelalisib 1 μM, MOR00208 0.01 nM (0.0015 μg/ml)", "result": 20.7, "unit": "%"},
      {"measurement": "% dead cells", "setting": "Experiment 2, Idelalisib 1 μM, MOR00208 01 nM (0.015 μg/ml)", "result": 20.7, "unit": "%"},
      {"measurement": "% dead cells", "setting": "Experiment 2, Idelalisib 1 μM, MOR00208 10 nM (1.5 μg/ml)", "result": 20.7, "unit": "%"},
      {"measurement": "% dead cells", "setting": "Experiment 2, Idelalisib 3 μM, MOR00208 0.01 nM (0.0015 μg/ml)", "result": 14.6, "unit": "%"},
      {"measurement": "% dead cells", "setting": "Experiment 2, Idelalisib 3 μM, MOR00208 0.1 nM (0.015 μg/ml)", "result": 14.6, "unit": "%"},
      {"measurement": "% dead cells", "setting": "Experiment 2, Idelalisib 3 μM, MOR00208 10 nM (1.5 μg/ml)", "result": 14.6, "unit": "%"},
      {"measurement": "% dead cells", "setting": "Experiment 2, Idelalisib 10 μM, MOR00208 0.01 nM (0.0015 μg/ml)", "result": 14.7, "unit": "%"},
      {"measurement": "% dead cells", "setting": "Experiment 2, Idelalisib 10 μM, MOR00208 0.1 nM (0.015 μg/ml)", "result": 14.7, "unit": "%"},
      {"measurement": "% dead cells", "setting": "Experiment 2, Idelalisib 10 μM, MOR00208 10 nM (1.5 μg/ml)", "result": 14.7, "unit": "%"},
      {"measurement": "% dead cells", "setting": "Experiment 3, Idelalisib 0.3 μM, MOR00208 0.01 nM (0.0015 μg/ml)", "result": 17.3, "unit": "%"},
      {"measurement": "% dead cells", "setting": "Experiment 3, Idelalisib 0.3 μM, MOR00208 0.1 nM (0.015 μg/ml)", "result": 17.3, "unit": "%"},
      {"measurement": "% dead cells", "setting": "Experiment 3, Idelalisib 0.3 μM, MOR00208 10 nM (1.5 μg/ml)", "result": 17.3, "unit": "%"},
      {"measurement": "% dead cells", "setting": "Experiment 3, Idelalisib 1 μM, MOR00208 0.01 nM (0.0015 μg/ml)", "result": 18.7, "unit": "%"},
      {"measurement": "% dead cells", "setting": "Experiment 3, Idelalisib 1 μM, MOR00208 0.1 nM (0.015 μg/ml)", "result": 18.7, "unit": "%"},
      {"measurement": "% dead cells", "setting": "Experiment 3, Idelalisib 1 μM, MOR00208 10 nM (1.5 μg/ml)", "result": 18.7, "unit": "%"},
      {"measurement": "% dead cells", "setting": "Experiment 3, Idelalisib 3 μM, MOR00208 0.01 nM (0.0015 μg/ml)", "result": 14.0, "unit": "%"},
      {"measurement": "% dead cells", "setting": "Experiment 3, Idelalisib 3 μM, MOR00208 0.1 nM (0.015 μg/ml)", "result": 14.0, "unit": "%"},
      {"measurement": "% dead cells", "setting": "Experiment 3, Idelalisib 3 μM, MOR00208 10 nM (1.5 μg/ml)", "result": 14.0, "unit": "%"},
      {"measurement": "% dead cells", "setting": "Experiment 3, Idelalisib 10 μM, MOR00208 0.01 nM (0.0015 μg/ml)", "result": 11.5, "unit": "%"},
      {"measurement": "% dead cells", "setting": "Experiment 3, Idelalisib 10 μM, MOR00208 0.1 nM (0.015 μg/ml)", "result": 11.5, "unit": "%"},
      {"measurement": "% dead cells", "setting": "Experiment 3, Idelalisib 10 μM, MOR00208 10 nM (1.5 μg/ml)", "result": 11.5, "unit": "%"},
      {"measurement": "% dead cells", "setting": "Experiment 4, Idelalisib 0.3 μM, MOR00208 0.01 nM (0.0015 μg/ml)", "result": 15.5, "unit": "%"},
      {"measurement": "% dead cells", "setting": "Experiment 4, Idelalisib 0.3 μM, MOR00208 0.1 nM (0.015 μg/ml)", "result": 15.5, "unit": "%"},
      {"measurement": "% dead cells", "setting": "Experiment 4, Idelalisib 0.3 μM, MOR00208 10 nM (1.5 μg/ml)", "result": 15.5, "unit": "%"},
      {"measurement": "% dead cells", "setting": "Experiment 4, Idelalisib 1 μM, MOR00208 0.01 nM (0.0015 μg/ml)", "result": 15.9, "unit": "%"},
      {"measurement": "% dead cells", "setting": "Experiment 4, Idelalisib 1 μM, MOR00208 0.1 nM (0.015 μg/ml)", "result": 15.9, "unit": "%"},
      {"measurement": "% dead cells", "setting": "Experiment 4, Idelalisib 1 μM, MOR00208 10 nM (1.5 μg/ml)", "result": 15.9, "unit": "%"},
      {"measurement": "% dead cells", "setting": "Experiment 4, Idelalisib 3 μM, MOR00208 0.01 nM (0.0015 μg/ml)", "result": 13.8, "unit": "%"},
      {"measurement": "% dead cells", "setting": "Experiment 4, Idelalisib 3 μM, MOR00208 0.1 nM (0.015 μg/ml)", "result": 13.8, "unit": "%"},
      {"measurement": "% dead cells", "setting": "Experiment 4, Idelalisib 3 μM, MOR00208 10 nM (1.5 μg/ml)", "result": 13.8, "unit": "%"},
      {"measurement": "% dead cells", "setting": "Experiment 4, Idelalisib 10 μM, MOR00208 0.01 nM (0.0015 μg/ml)", "result": 12.1, "unit": "%"},
      {"measurement": "% dead cells", "setting": "Experiment 4, Idelalisib 10 μM, MOR00208 0.1 nM (0.015 μg/ml)", "result": 12.1, "unit": "%"},
      {"measurement": "% dead cells", "setting": "Experiment 4, Idelalisib 10 μM, MOR00208 10 nM (1.5 μg/ml)", "result": 12.1, "unit": "%"},
      {"measurement": "cytotoxic effects against MEC-1 cells", "setting": "Idelalisib alone", "result": "little to no cyctotoxic effects; also recorded: low cytotoxity activity"}
    ]}
  ]
}
